Source: PubChem BioAssay (NCI)
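Cultured in 96-well plates, cells were exposed to test compound for 48 hours across five concentrations. GI50: concentration for 50% inhibition of growth. TGI marks complete inhibition of growth.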

Key:
Experiment in all cases: NCI anticancer screen, dose series, 48 h
LOX IMVI melanoma = test system: LOX IMVI melanoma
HL-60(TB) leukemia = test system: HL-60(TB) leukemia
MCF7 breast = test system: MCF7 breast
NCI-H522 lung = test system: NCI-H522 lung
OVCAR-5 ovarian = test system: OVCAR-5 ovarian
CCRF-CEM leukemia = test system: CCRF-CEM leukemia
SK-MEL-28 melanoma = test system: SK-MEL-28 melanoma
SF-268 CNS = test system: SF-268 CNS
SF-295 CNS = test system: SF-295 CNS
NCI/ADR-RES ovarian = test system: NCI/ADR-RES ovarian

Structure (SMILES) | GI50 (LOX IMVI melanoma) [µM] | TGI (LOX IMVI melanoma) [µM] | GI50 (HL-60(TB) leukemia) [µM] | TGI (HL-60(TB) leukemia) [µM] | GI50 (MCF7 breast) [µM] | TGI (MCF7 breast) [µM] | GI50 (NCI-H522 lung) [µM] | TGI (NCI-H522 lung) [µM] | GI50 (OVCAR-5 ovarian) [µM] | TGI (OVCAR-5 ovarian) [µM] | GI50 (CCRF-CEM leukemia) [µM] | TGI (CCRF-CEM leukemia) [µM] | GI50 (SK-MEL-28 melanoma) [µM] | TGI (SK-MEL-28 melanoma) [µM] | GI50 (SF-268 CNS) [µM] | TGI (SF-268 CNS) [µM] | GI50 (SF-295 CNS) [µM] | TGI (SF-295 CNS) [µM] | GI50 (NCI/ADR-RES ovarian) [µM] | TGI (NCI/ADR-RES ovarian) [µM]
N#CSCC1CC(O)(c2ccccc2)CC(c2ccc(Cl)cc2)O1 (centres undefined) | 1.59 | 2.95 | 2.52 | 5.3 | 1.84 | 4.92 | 1.36 | 2.83 | 12.8 | 26 | 2.55 | 11.2 | 1.84 | 4.57 | 1.8 | 3.29 | 3.28 | 12.7 |  | 
CCOC(=O)C1=C(C)N(NC(=O)OC)C2(N)N(NC(=O)OC)C(C)=C(C(=O)OCC)C12C#N (centres undefined) |  | > 100 |  | > 100 |  |  |  | > 100 |  | > 100 |  |  |  | > 100 |  | > 100 |  | > 100 |  | 
CC1(C)Cc2nnsc2C2=C1C(=O)CCS2 |  | > 100 |  | > 100 |  |  |  | > 100 |  | > 100 |  | > 100 |  | > 100 |  | > 100 |  | > 100 |  | 
CNC1=CC(=O)C2=C(C1=O)C1C3=C(C(=O)C(Br)=C(OC)C3=O)C2c2ccccc21 (centres undefined) |  |  |  |  | 2.65 | 26.2 | 1.3 | 2.98 | 2.15 | 8.63 |  |  | 2.34 | > 50 | 1.87 | 10.3 | 2.85 | 10 | 1.55 | 8.18
O=C1[C@@H]2C(c3ccncc3)=NO[C@@H]2C(=O)N1c1ccc(Cc2ccc(N3C(=O)[C@H]4C(c5ccncc5)=NO[C@H]4C3=O)cc2)cc1 |  | > 100 |  | > 100 |  |  |  |  |  | > 100 |  | > 100 |  | > 100 |  | > 100 |  | > 100 |  | 
Cc1nc2ccccc2c(/C=C/c2ccccc2)c1C(=O)/C=C/c1ccc(Cl)cc1 | 1.23 | 2.49 | 0.871 | 3.12 |  |  |  |  |  |  | 0.481 | 5.24 |  |  | 3.15 | > 100 |  |  | 1.81 | 4.88
CC(=O)Oc1ccccc1C(=O)NCCC[Se]C#N | 1.51 | 5.26 | 2.09 | 5.49 | 2.32 | 11.7 | 1.62 | 3.5 | 2.78 | 6.91 | 2.89 | 21.1 | 1.89 | 4.82 | 1.84 | 4.06 | 1.89 | 3.67 |  | 
CCCC(=O)O[C@]1(C)CC[C@@H]2[C@H]3[C@@H]1[C@@H]1C/C(C)=C\CC[C@](C)(OC(=O)[C@@H]2C)[C@H]3O1 | 24.6 | 59.9 |  |  | 29.1 | > 100 | 19.6 | 75.5 | 38.2 | > 100 | 8.89 | 26 | 78.5 | > 100 | 47.8 | > 100 | 41.2 | > 100 |  | 
NCCn1cnc2nc(NC(=O)c3ccccc3)[nH]c(=O)c21 |  | > 100 |  | > 100 |  |  |  |  |  | > 100 |  |  |  | > 100 |  | > 100 |  | > 100 |  | 
COC(=O)c1ccc(NC(N)=NCC(C)(C)COc2ccc(C(F)(F)F)cc2)nc1 |  |  | 1.79 | 3.56 | 1.52 | 3.28 | 1.6 | 3.23 | 1.6 | 3.08 |  |  | 1.64 | 3.08 |  |  | 1.61 | 3.04 | 1.68 | 3.34
C/C=C/C=C/CCCCCCCCCCCCC[C@]1(OC)C=CC(CC(=O)OC)OO1 (some centres undefined) | 19.3 | 37.1 |  |  |  |  | 3.8 | 16.6 |  |  | 6.9 | 28.7 |  | 36.1 |  | 46.4 | 18.5 | 34.3 |  | 
Cc1cccc(C)c1NC(=O)CCCC(=O)C(C#N)c1ccc(Cl)cc1 (centres undefined) |  | > 100 |  | > 100 |  |  |  | > 100 |  | > 100 |  | > 100 |  | > 100 |  | > 100 |  | > 100 |  | 
CCCCCCCC(=O)NS(=O)(=O)c1ccccc1 |  | > 100 |  | > 100 |  |  |  | > 100 |  |  |  | > 100 |  | > 100 |  | > 100 |  | > 100 |  | > 100
O=C1c2ccccc2C(=O)c2sc(Nc3ccc(Cl)cc3)nc21 |  | 2.91 |  | 1.05 |  |  |  | 3.28 |  | 7.37 |  | 4 |  | 3.36 |  | 5.52 |  | 15.8 | 2.1 | 5.52
Cc1cc(Cl)cc2c1NC(=O)C2(O)CC(=O)c1ccc(F)cc1 (centres undefined) |  | > 100 |  |  |  |  |  |  |  | > 100 |  |  |  | > 100 |  | > 100 |  | > 100 |  | 
Cc1ccccc1NC(=O)C(=O)CC(=O)C1CCOC1=O (centres undefined) |  | > 100 |  | > 100 |  |  |  | > 100 |  | > 100 |  | > 100 |  | > 100 |  | > 100 |  | > 100 |  | 
COc1ccc(/C(=C\c2cc(OC)c(OC)c(OC)c2)C(=O)O)cc1 |  | > 100 |  | 72.3 |  |  |  | 47.7 |  |  |  | > 100 |  | > 100 |  | > 100 |  | 45.5 |  | 
CCOC(=O)C1=C(c2ccccc2)NC(c2ccccc2)=C(C(=O)OCC)c2c1c(=O)cc[nH]c2=O |  | > 100 |  | > 100 |  |  |  | > 100 |  | > 100 |  |  |  | > 100 |  | > 100 |  | > 100 |  | 
Cc1ccc(S(=O)(=O)N[C@@H](Cc2ccccc2)C(=O)CCl)cc1 | 2.31 | 10.4 |  |  | 15.5 | 50.9 | 11.5 | 37.1 | 13.7 | 65.9 |  |  |  | 53.7 |  | 43.6 |  | 41.7 | 22.3 | 65.7
